The Emax is the size of the effect at its maximum, as opposed to the concentration needed.

In data set [1] the test system is mdx mice. The experiment in a line: Mouse model of Duchenne Muscle Distrophy (whole body tension in mdx mice). The conditions noted are these: for WBT5: average of top 5 FPTs divided by body weight; for WBT10: average of top 10 FPTs divided by body weight. It is filed as in vivo. How it is done: The effects of the compound (6) on muscle function were assessed in mdx mice, which are genetically and biochemically homologous to human DMD. Animals of 4 weeks of age were treated for 3 months with the compound (6) at two different doses (30 and 100 mg/kg), which was incorporated into the diet. Control mdx and wild-type mice were fed the same diet without any drug. To determine if treatment with the compound would ameliorate muscle function in mdx mice, we evaluated the whole body tension which is a measure of the total muscle force. Indeed, this assay, well described in the Treat-NMD standard procedures for the preclinical studies in DMD, is used to determine the ability of mice to exert tension in a pulling maneuver that is elicited by stroking the tail. It is thought to reflect the maximal acute phasic force of the mouse can achieve to escape a potentially harmful event. Briefly, each mouse was placed at the entry of a polyvinyl chloride tube that had been lined interiorly with an aluminum screen, and the tail of the mouse was connected to a tension transducer. Forward pulling movements were elicited by a standardized stroke of the tail with serrated forceps and the corresponding forward pulling tensions (FPTs) were recorded using a Biopac recording system. Between 15 and 20 FPTs were generally recorded during each session. The whole body tension 5 (WBT5) and WBT10 were obtained by dividing the average of the top 5 or top 10 FPTs, respectively, by the body weight.
Table.1 Whole Body Tension (WBT) measured in wild-type and mdx control mice and in mdx mice treated with two different doses of NCX 1443 (30 and 100 mg/kg) incorporated in the diet. Data are presented as mean±standard deviation. For each group, n=8-10 mice. *p<0.05 vs mdx vehicle, ^###p<0.001 vs wild-type (wt) mice, 1-way ANOVA followed by Tuckey post-hoc test.

The subject of data set [2] is isolated aortas from rats. Put plainly: Ex vivo tolerance evaluation (vascular response of isolated aortas from treated rats). In kind it is in vivo, rat. Conditions: for EC50 at 100 mg/kg: Rattus norvegicus, vascular response to Compound (6), 3 h after last administration. The method, then:
(§1) Thoracic aortas from male New Zealand rabbits or male Sprague Dawley (SD) were used. The aortas were placed immediately in Krebs-HEPES buffer (pH 7.4; composition mM: NaCl 130.0, KCl 3.7, NaHCO3 14.9, KH2PO4 1.2, MgSO4.7H2O 1.2, Glucose 11.0, HEPES 10.0, CaCl2.2H2O 1.6). Connective tissue was removed and aortas were cut into ring segments (4-5 mm in length). Each ring was placed in a 5 mL tissue bath filled with Krebs-HEPES buffer (37° C.) aerated with 95% O2 and 5% CO2 and was attached to a force transducer (Grass FT03), connected to a BIOPAC MP150 System for measurement of the isometric tension. Preparations were allowed to equilibrate for 1 h at a resting tension of 2 g for rabbit aortas and 1 g for rat aortas with changes of the buffer every 15 min. Then the rings were stimulated by exposure to 90 mM KCl (3 times) with intervening washings.
(§2) Rat aorta. After equilibration, rat aortas were precontracted with KCl (90 mM) and, when the contraction was stable, a cumulative concentration-response curve to acetylcholine (ACh, 0.01-100 μM) was added. After washout, the rings were precontracted again with KCl (90 mM). When a steady-state level of contraction was obtained, a cumulative concentration-response curve to the tested compounds (0.01-100 μM) was obtained.
(§3) Data analysis. Results are given as mean±SEM. Vascular responses are expressed as percentage relaxation and plotted vs concentration. The sensitivity of isolated aorta to different vasodilators is expressed as the concentration that elicited 50% of the maximal responses (EC50). Responses are quantified in terms of EC50 and Emax (maximal vasodilating effect) values, obtained from the concentration-response curve by nonlinear curve fitting, using GraphPad software.
Tolerance to nitrate was further investigated assessing the vascular effects of Compound (6) following repeated treatment compared with 5-ISMN. The vascular response to the compound itself was assessed on isolated aortas from rats orally treated for 5 days with Compound (6) (100 mg/kg). The vascular response was performed as described in Example 6.
Vascular responses were performed 1 h (ISMN) or 3 h (Compound (6)) after the last administration, the concentrations of tested compound that elicited the 50% of the maximal responses (EC50) are shown in Table 4.

For data set [3], the system named is rat aorta, endothelial-dependent vasodilation (response to ACh). Put plainly: Endothelial dysfunction evaluation (vascular response to acetylcholine after treatment). In kind it is in vivo. The conditions noted are these: for Emax at 100 mg/kg: Rattus norvegicus, response to ACh, read-out: % relaxation (Emax). How it is done: as §1, §2, §3
Endothelial-dependent vasodilation (vascular response to acetylcholine, ACh) was assessed following 5-day treatment with Compound (6) (100 mg/kg) or 5-ISMN (30 mg/kg). A relaxant response to ACh indicated the presence of a functional endothelium. The vascular response was performed as described in Example 6.

For data set [4], the system named is methoxamine-precontracted rabbit aortic rings. The experiment in a line: In vitro NO-mediated vasorelaxation. In kind it is cell-based. How it is done: The ability of compound (6) disclosed in example 1, to induce in vitro vasorelaxation, which is a functional marker of NO release, was assessed on methoxamine-precontracted rabbit aortic rings.
as §1
Rabbit aorta. […]
Data analysis. […] Vascular responses are expressed as percentage relaxation and plotted vs concentration. […] Responses are quantified in terms of EC50 and Emax (maximal vasodilating effect) values, obtained from the concentration-response curve by nonlinear curve fitting, using GraphPad software.

[5] abbreviates: 30 mg/kg/day in the diet for 3 months.
Where [6] appears, read: 100 mg/kg/day in the diet for 3 months.

Read-outs that look alike come from different tables or passages of the source.

As to `COC1=C(OC)C(=O)C(CCCCCCCCCCO[N+](=O)[O-])=C(C)C1=O` [Compound (6), 10-(4,5-dimethoxy-2-methyl-3,6-dioxocyclohexa-1,4-dienyl)decyl nitrate], the values for the WBT5 in data set [1] (setting [5]) and in data set [1] (setting [6]) were 3.6 ± 0.7^### and 4.1 ± 0.8^###*, respectively. The WBT10 is listed as 3.0 ± 0.7^### in data set [1] (setting [5]) and 3.4 ± 0.6^###* in data set [1] (setting [6]). Also, the “effect on muscle function, in words” value in data set [1] (30 and 100 mg/kg in the diet for 3 months) is reported as “showed a dose-response trend in improving muscle function reaching a significant effect at the dose of 100 mg/kg”. Further, the EC50 at 100 mg/kg was 110 ± 20 nM in data set [2] (acute, aortas of rats given Compound (6) 100 mg/kg) and 180 ± 20 nM in data set [2] (repeated (5 days oral) Compound (6) 100 mg/kg). In addition, the “vascular response of aortas from treated animals vs vehicle arteries, in words” value in data set [2] (compound (6) 100 mg/kg oral, 5 days) is listed as “showed the same sensitivity to Compound (6) as those arteries of animals treated only with vehicle”. Further, the “effect on endothelial-dependent vasorelaxation, in words” value in data set [3] (Compound (6) 100 mg/kg, 5-day treatment) is reported as “did not modify endothelial-dependent vasorelaxation”. Moreover, the maximal response (Emax) at 100 mg/kg came to 84.3 ± 7.5% in data set [3] (120 h, repeated (5-day) Comp. (6) 100 mg/kg) and 89.6 ± 4.5% in data set [3] (acute, Comp. (6) 100 mg/kg). Further, the “relaxation at the highest concentration tested” value in data set [4] (100 μM) stood at 89±1%. The EC50 in data set [4] (Oryctolagus cuniculus, methoxamine (3 μM) precontracted, functional endothelium, read-out: EC50 (concentration-dependent relaxation)) came out at 4700 ± 200 nM.

For the origin of these results see patent US9079821B2, “Quinone based nitric oxide donating compounds” (NICOX S.A., priority 2011, dated 2015).
